Our source for the frequency of transformants values is patent US6964870B2, “Enhanced selection of genetically modified pine embryogenic tissue” (MeadWestvaco Corporation, priority 2000, dated 2005).

The test system of this experiment is precotyledonary embryos of loblolly pine or hybrid cell lines. Nature of the experiment: Bombardment of precotyledonary embryos on preparation medium with high ABA (Example 3). In kind it is cell-based. As to conditions: preparation medium for bombardment with 125 mg/L ABA; lines of cross 7-56×9-6 and others incl. interspecific hybrids. The method, then: For transformation in this example, the tissue was bombarded using conditions described in Example 1 except that the tissue had been plated on MSG2 medium containing 125 mg/L ABA and 70 g/L PEG 3-8 weeks previously, instead of on medium DCR3 one day previously, so that the experimental treatment consisted of precotyledonary embryos at various stages of development. Following DNA transfer, visible pre-stage 3 embryos were dissected from the bombarded tissues and placed individually onto DCR2 as described above for secondary proliferation.
Following a period of one to 14 days, when a preponderance of pre-stage 3 embryos dissected from the bombarded tissue could be seen to be beginning to proliferate secondary embryogenic cell masses, samples to be assayed for transformation were transferred to a selection medium identical to DCR2 except that it contained […] to initiate secondary embryogenesis. Samples of isolated pre-stage 3 embryos from each line and the secondary tissue proliferating from them were also cultured on DCR2 maintenance media without selection agent to observe any effect of the bombardment treatment on proliferation. These cultures were transferred to fresh maintenance media every three weeks. Proliferation of these non-selected controls at nine weeks after dissection is recorded in Table 4. […]

As to `CC1=CC(=O)CC(C)(C)[C@@]1(O)/C=C/C(C)=C\C(=O)O` [ABA, abscisic acid], the frequency of transformants entry is “surprisingly high frequency of transformants”.
